Source: US10562898B2, “Substituted benzenesulfonamides as inhibitors of alpha-4 beta-7 integrin activity” (EA PHARMA CO., LTD., priority 2016, dated 2020)

Tested on: mouse colitis model induced by transfer of IL-10−/− cells
Assay: Mouse colitis model induced by transfer of IL-10−/− cells, intestinal tract weight
Assay type: in vivo
Conditions: oral, three times per day for 14 days
Procedure: As a method for preparing mouse colitis model induced by transfer of IL-10^−/− cells, used was the method described in J Crohns Colitis. 2013 December; 7 (11): e533-42.
Each test substance was suspended in a 0.5% methylcellulose aqueous solution to be contained at 30, 10, 3, or 1 mg/mL, and was orally administered with Terumo syringe (1 mL) and a metal probe for mouse in a dose of 10 ml per kilo gram of animal body weight. The administration was performed three times per day for 14 days.
An intestinal tract weight as a medicinal effect indicator was measured by the following method. On the final necropsy day, the large intestine from the anus to just before the cecum was taken out, the content in the intestinal tract was washed away with physiological saline, the moisture was lightly removed, and the weight of the large intestine was measured. The inhibitory rate (%) in each of compound administered groups was figured out based on the average value of intestinal tract weights per group under the setting in which a colitis onset group was scored at 0% and a normal group was scored at 100%.

Row | Compound | Inhibitory Rate (%) (intestinal tract weight) (Dose 10 mg/kg) | Inhibitory Rate (%) (intestinal tract weight) (Dose 100 mg/kg) | Inhibitory Rate (%) (intestinal tract weight) (Dose 30 mg/kg) | Inhibitory Rate (%) (intestinal tract weight) (Dose 300 mg/kg)
1 | Cc1c(C)n(C)c(=O)n(-c2ccc(C[C@H](NC(=O)c3cc(F)c(NS(=O)(=O)c4ccc(NC(=O)C(C)(C)C)cc4)cc3F)C(=O)OC(C)C)cc2)c1=O [Compound P2] | 24.6 | 52.2 | – | –
2 | CCOC(=O)[C@H](Cc1ccc(-n2c(=O)cc(C)n(C)c2=O)nc1)NC(=O)c1cc(F)c(NS(=O)(=O)c2ccc(NC(=O)C(C)(C)C)cc2)cc1F [Compound P52] | – | – | 39.9 | 42.8
3 | CC(C)COC(=O)[C@H](Cc1ccc(-n2c(=O)ccn(C)c2=O)nc1)NC(=O)c1cc(F)c(NS(=O)(=O)c2ccc(NC(=O)C(C)(C)C)cc2)cc1F [Compound P74] | – | – | 12.5 | 47.1
4 | CCOC(=O)[C@H](Cc1ccc(-n2c(=O)c(C)cn(C)c2=O)nc1)NC(=O)c1cc(F)c(NS(=O)(=O)c2ccc(NC(=O)C(C)(C)C)cc2)cc1F [Compound P69] | – | – | 36.1 | 51.1
5 | CC(C)OC(=O)[C@H](Cc1ccc(-n2c(=O)ccn(C)c2=O)nc1)NC(=O)c1cc(F)c(NS(=O)(=O)c2ccc(NC(=O)C(C)(C)C)cc2)cc1F [Compound P59] | – | – | 46.7 | 58.6
6 | Cc1cn(C)c(=O)n(-c2ccc(C[C@H](NC(=O)c3cc(F)c(NS(=O)(=O)c4ccc(NC(=O)C(C)(C)C)cc4)cc3F)C(=O)OCC(C)C)cn2)c1=O [Compound P73] | – | – | 21.9 | 38.8
7 | Cc1cc(=O)n(-c2ccc(C[C@H](NC(=O)c3cc(F)c(NS(=O)(=O)c4ccc(NC(=O)C(C)(C)C)cc4)cc3F)C(=O)OCC(C)C)cn2)c(=O)n1C [Compound P97] | – | – | 17.5 | 43.6
